Measurements as given in ChEMBL document CHEMBL1151366, “Potential Anticancer Agents. XVIII. Constituents of Amyris pinnata” (1981).
Converted amounts (≈) assume the structure as drawn. The source made the active and inactive calls. No cut-off for these calls is given here.

Assays:
[1] = Cytotoxicity against human 9KB cells; assay type: functional; conditions: read-out: ED50 (the source's name)
P388 = assay: In vivo antitumor activity against mouse P388 cells at 7.5 mg/kg relative to control; assay type: functional
B16 = assay: In vivo antitumor activity against mouse B16 cells at 1.5 to 12.0 mg/kg relative to control; assay type: functional, organism-based

`COc1c2ccoc2c(OCC=C(C)C)c2oc(=O)ccc12` [PHELLOPTERIN] showed an EC50 [1] of 7.2 µg/mL (≈ 24 µM).

In the case of `CC[C@H](CC[C@@H](C)[C@H]1CC[C@H]2[C@@H]3CC=C4C[C@@H](O)CC[C@]4(C)[C@H]3CC[C@]12C)C(C)C` [BETA-SITOSTEROL], the EC50 [1] is reported as 22 µg/mL (≈ 53 µM).

Molecule `CC(C)(O)[C@H](O)COc1c2occc2cc2ccc(=O)oc12` [HERACLENOL] has an EC50 [1] greater than 100 µg/mL.

`CC1(C)C=Cc2c(ccc3ccc(=O)oc23)O1` [SESALIN] gave an EC50 [1] of 31 µg/mL (≈ 136 µM).

Work on `COc1cc2ccc(=O)oc2cc1O` [SCOPOLETIN] yielded an EC50 [1] of 2.9 µg/mL (≈ 15.1 µM).

With `COc1cc([C@@H]2c3cc4c(cc3C[C@H]3COC(=O)[C@@H]32)OCO4)cc2c1OCO2` [AUSTROBAILIGNAN 1] the T/C (P388) was 125%, the Activity (B16) was “inactive” and the EC50 [1] was 0.027 µg/mL (≈ 0.0706 µM).

Molecule `O=C1OCC(C(O)c2ccc3c(c2)OCO3)C1Cc1ccc2c(c1)OCO2` (stereo unspecified) [SVENTENIN] has an EC50 [1] of 23 µg/mL (≈ 62.1 µM).

`CC(C)=CCOc1c2occc2cc2ccc(=O)oc12` [PENTOSALEN] showed an EC50 [1] of 33 µg/mL (≈ 122 µM).

`O=C1OC[C@H](Cc2ccc3c(c2)OCO3)/C1=C\c1ccc2c(c1)OCO2` [SAVININ] gave an EC50 [1] of 22 µg/mL (≈ 62.4 µM).
